Source: article PMC10604720, “Unraveling the Mechanism of Epichaperome Modulation by Zelavespib: Biochemical Insights on Target Occupancy and Extended Residence Time at the Site of Action” (Biomedicines, 2023)

Legend:
[1] = parameters: method as in PMID 28808818; details: human patients, no dependency on dose level; cited from earlier work
[2] = Biodistribution / PET pharmacokinetics of [124I]-zelavespib in MDA-MB-468 tumor-bearing mice (data of ref 32, refitted to exponential decay); assay type: in vivo, mouse
Experimental: Iodine-124 is a ‘non-residualizing’ isotope (i.e., free iodine-124 washes out from cells), and therefore, data derived from positron emission tomography imaging of MDA-MB-468-bearing mice that were administered a tracer amount of [^124I]-PU-AD can be used to determine real-time zelavespib concentrations delivered to tumors. Because positron emission tomography provides information on radioactivity and not molar concentrations, radioactivity data from Pillarsetty et al. were transformed into tumor concentrations to calculate the time-dependent zelavespib concentrations in tumors for an administered dose of 50 mg/kg. The drug concentration (in μM) in the tumor water space, [Drugtumor], at the time t post-administration is therefore: [Drugtumor]t=Drugdose·[Atumor]t/100%·1/W·1×10^6/MW µM where Drugdose is the administered drug dose (in mg), [Atumor]t is the activity concentration (in % injected dose per milliliter, %ID/mL) of the surrogate radiotracer, W is the water space of the tissue (in mL/g), MW is the molecular weight of the drug (i.e., zelavespib), and the factor 1 × 10^6 converts the concentration to μM. For the drug zelavespib and the surrogate radiotracer […] co-injected in a ratio of ~1 to 10,000, the drug itself is essentially the only significant form of the drug–surrogate combination in the tumor. Thus, for a co-administered dose of zelavespib (zelavespibdose in mg) and a tracer amount of [^124I]-PU-AD, the drug concentration in the tumor water space (using an average water space, W = 0.8 mL/g, and the molecular weight MW = 512) is: [Zelavespibtumor]t=Zelavespibdose · [Atumor]t/100%·2.44×10^3 µM
To study the zelavespib–epichaperome interaction in vivo, we selected, for simplicity, an epichaperome-positive tumor model (e.g., subcutaneously xenografted MDA-MB-468 tumors in mice). Using whole-body PET imaging after the injection of ^124I-labeled zelavespib, Pillarsetty et al. reported drug presence in MDA-MB-468 tumors up to 120 h post-single dose administration (~T1/2 = 60 h). Conversely, zelavespib was no longer observed in non-disease, non-metabolizing tissues after ~8 h, clearing rapidly from plasma, paralleled by a similar rapid clearance from normal tissues (i.e., chaperone-positive but epichaperome-negative). In these tumors, a clear relationship between tumor retention, pharmacodynamic effects, and anti-tumor activity was observed, supporting the notion that zelavespib was in residence with its target over the time it resided in these tumors.
These values are very much in agreement with those reported for zelavespib in human patients. […] Contrasting plasma and normal tissues and organs, the distribution of zelavespib in tumors was best fitted using a bi-exponential model. […] The first phase thus reflects the clearance of systemic agent, while the second is attributable to specific tumor retention.
Figure 1 Biodistribution of zelavespib in MDA-MB-468 tumor-bearing mice. (a) Biodistribution of [^124I]-Zelavespib in MDA-MB-468 tumors, organs, tissues, and plasma as per ref. [32]. Data are presented as means ± s.d., five mice per time point. Curves for blood, lung, heart, muscle, bone, and brain were fitted using a one-phase decay equation, and kinetics of zelavespib clearance were determined. Tumor curve was fitted to a two-phase exponential decay. k, kfast, and kslow are the rate constants. Half-life (T1/2) is computed as ln(2)/k. […] (b) Illustrative schematic showing the distinct binding kinetics of zelavespib to epichaperomes (slow off-rate) and to chaperone assemblies (fast off-rate). The tumor pharmacokinetics profile recorded in the Phase 2 interval may represent a direct reflection of the in vivo kinetics of target–drug unbinding. koff, kinetic rate constant for dissociation of an epichaperome-zelavespib assembly. Rt, retention time. […]

[3] = MDA-MB-468 tumor-bearing mice, one-phase exponential decay fit of data of ref 32
[4] = MDA-MB-468 tumor, bi-exponential fit, Phase 1: 0 to 8 h, data of ref 32
[5] = MDA-MB-468 tumor, bi-exponential fit, slow terminal clearance phase, data of ref 32

Compound: CC(C)NCCCn1c(Sc2cc3c(cc2I)OCO3)nc2c(N)ncnc21 [zelavespib]
- mean terminal half-life (T1/2) in the plasma [1]: 8.4 ± 3.6 h
- half-life (T1/2), bone [2, 3]: 2.84 h
- half-life (T1/2), brain [2, 3]: 2.65 h
- half-life (T1/2), heart [2, 3]: 3.10 h
- half-life (T1/2), lung [2, 3]: 3.37 h
- half-life (T1/2), muscle [2, 3]: 5.03 h
- half-life (T1/2), plasma/blood [2, 3]: 4.38 h
- tumor Phase 1 T1/2 [2, 4]: 2.87 h
- tumor Phase 1 rate constant k (kfast) [2, 4]: 0.241 h⁻¹
- tumor Phase 2 T1/2 [2, 5]: 46.8 h
- tumor Phase 2 rate constant k (kslow) [2, 5]: 0.015 h⁻¹
